Series [1] concerns SW480 colon adenocarcinoma cells. Set-up: method as in PMID 38426897. Particulars: MTT assay, exposure time 96 h; ref [5]; read-out: 50% inhibitory concentration SW480 (chlorido complexes, reference) (converted); cited from earlier work. A general note: Formazan colour is commonly taken as a measure of viable cells.
The test system of series [2] is CH1/PA-1 ovarian teratocarcinoma cells. Set-up: method as in PMID 38426897. Particulars: MTT assay, exposure time 96 h; ref [5]; read-out: 50% inhibitory concentration CH1 (chlorido complexes, reference) (converted); cited from earlier work.
Series [3] deals with A549 lung adenocarcinoma cells. Also on record: method as in PMID 38426897. Particulars: MTT assay, exposure time 96 h; ref [5]; read-out: 50% inhibitory concentration A549 (chlorido complexes, reference) (converted); cited from earlier work.
Series [4] relates to SW480 cells. Nature of the series: DCFH-DA assay, cellular ROS levels. The class given is cell-based, human. Particulars: for Effect on intracellular ROS levels: 2 h, concentration dependent. As to the method: For this approach, SW480 cells were subjected to the 2′,7′-dichlorofluorescin-diacetate (DCFH-DA) assay.
SW480 colon adenocarcinoma cells were trypsinized for 5 min in a humidified incubator at 37°C and under a 5% CO2 atmosphere. Supplemented MEM was added to stop trypsinization, and cells were centrifuged for 3 min at 1200 rpm (Heraeus Megafuge 1.0R). After cell counting, SW480 cells were seeded in 100-μL aliquots in densities of 2.5 × 10^4 cells/well into 96-well clear flat-bottom microplates (CytoOne, TC-treated, from Starlab). After incubation for 24 h, cells were washed with 200 μL of Hanks' balanced salt solution (HBSS; Sigma-Aldrich; supplemented with 1% heat-inactivated FCS). […] After washing cells with 200 μL of supplemented HBSS, serially diluted test compounds in phenol-red-free Opti-MEM (Gibco), supplemented with 1% heat-inactivated FCS, were added in 200-μl triplicates and tert-butyl hydroperoxide (TBHP) was applied as positive control. […] Blank-corrected values were calculated relative to negative controls (treated with drug-free supplemented Opti-MEM) from three independent experiments.

Series [5] has as its system SW480 colon adenocarcinoma cells. Nature of the series: MTT assay, inhibition of cancer cell growth, SW480. Particulars: read-out: 50% inhibitory concentration SW480, exposure time 96 h.
Description: (§2) CH1/PA-1 ovarian teratocarcinoma cells (CH1, RRID: CVCL_4992, provided by L. R. Kelland, CRC Center for Cancer Therapeutics, Institute of Cancer Research, Sutton, UK; confirmed by STR profiling as PA-1 ovarian teratocarcinoma cells at Multiplexion, Heidelberg, Germany), SW480 colon adenocarcinoma (RRID: CVCL_0546), and A549 lung adenocarcinoma cells (NCI-H2618, RRID: CVCL_A549; both cell lines were obtained from the American Type Culture Collection (ATCC), Manassas, VA, USA) were grown as adherent cultures in 75-cm^2 culture flasks (Starlab, Hamburg, Germany) by using minimal essential medium (MEM) supplemented with 1 mM sodium pyruvate, 4 mM L-glutamine, 1% (v/v) nonessential amino acids from 100-fold stock (all purchased from Sigma-Aldrich), and 10% heat-inactivated fetal bovine serum (Serana, Pessin, Germany).
(§3) The 3-(4,5-dimethylthiazol-2-yl)-2,5-diphenyl-2H tetrazolium bromide (MTT, Acros Organics, Geel, Belgium) assay was used to detect the cytotoxicity of the compounds after 96-h incubation. For this purpose, cells were harvested from culture flasks by trypsinization, seeded in 100-μL aliquots into 96-well microculture plates (Starlab, UK) in densities of 1 × 10^3 (CH1/PA-1), 2 × 10^3 (SW480), and 3 × 10^3 (A549) cells per well and incubated for 24 h prior to exposure to the test compounds. Stock solutions of test compounds were prepared in DMF, which were then diluted in MEM (not to exceed a final content of 0.5% v/v of organic solvent in the test plates), and serial dilutions were added in aliquots of 100 μL per well. […] After incubation for 4 h, the medium/MTT mixtures were removed, and the produced formazan crystals were dissolved in 150 μL DMSO per well. Optical densities at 550 nm were measured spectrophotometrically with a ELx808 Absorbance Microplate Reader (Bio-Tek, Winooski, VT, USA) by using a reference wavelength of 690 nm to correct for unspecific absorption.
Series [6] deals with CH1/PA-1 ovarian teratocarcinoma cells. Nature of the series: MTT assay, inhibition of cancer cell growth, CH1/PA-1. Particulars: read-out: 50% inhibitory concentration CH1, exposure time 96 h.
Description: as §2, §3
The test system of series [7] is SW480 cancer cells. In words: Cellular accumulation (ICP-MS) in SW480 cells. Particulars: 50 μM, 0.5% DMF in MEM, SW480, exposure time 2 h. The procedure: (§1) As the coordinated p-cym and leaving groups are present in all synthesized complexes, we focused on the differently substituted 4-phenylthiazoles for estimated changes in lipophilicity.
Cellular accumulation of the compounds was studied based on a method described previously with modifications. 1.8 × 10^5 SW480 cells per well were seeded in aliquots of 1 mL of complete MEM (see above) into 12-well plates (CytoOne, tissue culture treated, Starlab) and incubated at 37°C for 24 h. Then, cells were exposed for 2 h at 37°C to 50 μM solutions of the test compounds (containing 0.5% DMF) in fresh 0.5 mL of complete MEM upon exchange of the medium. Afterward, cells were washed three times with 1 mL PBS per well, lysed with 0.4 mL sub-boiled HNO3 per well for 1 h at room temperature, and 0.3 mL of each sample was diluted with 7.7 mL Milli-Q water. Adsorption/desorption controls were prepared in the same manner in cell-free wells. Ruthenium content was quantified by ICP-MS using an ICP-quadrupole MS Agilent 7800 instrument (Agilent Technologies, Waldbronn, Germany) as described previously.

Series [8] deals with A549 lung adenocarcinoma cells. In words: MTT assay, inhibition of cancer cell growth, A549. Particulars: read-out: 50% inhibitory concentration A549, exposure time 96 h.
Description: as §2, §3
The nature of series [9]: Solubility in 1% DMF/PBS.
Description: Solubility is an important factor for the application of metallodrugs. DMF was used as solubilizer to allow comparison to the respective chlorido complexes where the usage of DMSO would lead to stable DMSO adducts.
as §1

Series [10] has as its system G4 forming sequences (h-Telo, bcl2, hTERT, Kit1, Kit2) and dsDNA. Nature of the series: FRET melting assay, G-quadruplex / B-DNA interaction. It counts as binding, human. Particulars: 60 mM potassium cacodylate pH 7.4, 2 h incubation. The procedure: G4s are DNA secondary motifs that play crucial roles in cancer development. […] The complexes were incubated with different G4 forming sequences: one derived from human telomere-forming (h-Telo) and four corresponding to promoter regions of oncogenes, namely, bcl2, hTERT, Kit1, and Kit2. For comparison, a self-complementary sequence called dsDNA was used to represent B-DNA (Table S2).
FRET experiments were conducted using an Applied Biosystems QuantStudio 6 PCR cycler in a 96-well format equipped with a FAM (6-carboxyfluorescein) filter. Oligonucleotide stock solutions, labelled with FAM and TAMRA (6-carboxytetramethylrhodamine) probes, were diluted to the desired concentration in a 60-mM potassium cacodylate buffer (pH 7.4). To fold the oligonucleotides into their B-DNA or G4 topologies, the solutions were heated to 95°C for 5 min and then allowed to cool slowly to room temperature overnight. The final concentration of the oligonucleotides was 0.2 μM, with a total volume of 30 μL in each well. Metal complexes were dissolved in DMF to prepare 2 mM stock solutions and further diluted with the buffer, where DMF concentration never exceeded 0.05%. Mixtures of oligonucleotides and metal compounds were left at room temperature for 2 h. Data were collected twice, each time in duplicate, over a temperature range of 25°C–95°C, with a ramp of 1°C every 30 s. FAM emission data were normalized from 0 to 1 to compare different datasets. After data normalization, we extrapolated the T1/2 values, i.e., the temperature at which normalized FAM emission is 0.5. The DNA concentration is expressed in strands.

Series [11] deals with HCT116 colorectal cancer cell line (2D). In words: Resazurin assay, HCT116 2D (monolayer) culture. Particulars: read-out: IC50 2D, resazurin assay, 96 h exposure. A general note: The colour change of resazurin is a common sign of viable cells or microbes.
Description: Both models were investigated by the fluorimetric resazurin assay after 96-h exposure.
HCT116 colorectal carcinoma cells (RRID:CVCL_0291 from ATCC) were cultivated in McCoy's 5A medium, supplemented with 10% heat-inactivated fetal bovine serum and 4 mM L-glutamine.
For 2D experiments, HCT116 cells were harvested from culture flasks by trypsinization, seeded in 100-μL aliquots into 96-well microculture plates (CytoOne, TC-treated, from Starlab) in densities of 2 × 10^3 cells per well, and incubated for 24 h prior to exposure to the test compounds. […] Stock solutions of test compounds were prepared in DMF, which were then diluted in McCoy's 5A-supplemented medium (not to exceed a final content of 0.5% v/v of organic solvent in the test plates), and serial dilutions were added in aliquots of 100 μL per well. […] After incubation for 4 h, fluorescence was measured with a microplate reader (Bio-Tek, SynergyHT) at a wavelength of 530 nm, additionally using a reference wavelength of 620 nm.
In series [12] the test system is HCT116 multicellular tumor spheroids (3D). Nature of the series: Resazurin assay, HCT116 3D multicellular tumor spheroids. Particulars: read-out: IC50 3D; HCT116 3D spheroids, resazurin assay, 96 h exposure.

Read-outs that look alike come from different tables or passages of the source. A value given as a limit tells only on which side of the number the result lay.

Consider `CS(=O)(=O)c1ccc(-c2cscn2)[c]([Os][Cl])c1.Cc1ccc(C(C)C)cc1` [Compound 2c], for which the IC50 in series [1] is 4.4 µM; in series [2] it was 0.83 µM; in series [3], 10 µM.

Consider `Cc1ccc(C(C)C)cc1.Fc1ccc(-c2cscn2)[c]([Ru][Cl])c1` [Compound 1b], for which the IC50 in series [1] was 8.6 µM; in series [2], 3.4 µM; in [3], 16 µM.

Consider `CC(C)(C)OO` [positive control, tert-butyl hydroperoxide, reference compound], for which the “Elevation of ROS levels vs negative control” value in [4] (positive control) was “more than 3 fold”.

As a reminder, the Solubility is the concentration that dissolves in the medium under given conditions. As to `Cc1ccc(C(C)C)cc1.Cn1cc[n+]([Ru-]2[c]3cc(F)ccc3-c3csc[n+]32)c1.O=[N+]([O-])[O-]` [Compound 3b, [((3-κN)-1-Methylimidazole)(4-(4-fluorophenyl)thiazolato-κN,κC2′)(η^6-p-cymene)ruthenium(II)] Nitrate], the IC50 in series [5] amounted to 7.9 ± 1.5 µM; in series [6], 2.8 ± 0.2 µM; in series [8], 20 ± 3 µM. For the same compound, the “Cellular accumulation, fg Ru/cell” value in series [7] was found to be 470 ± 71 fg Ru/cell. For the same compound, the Solubility in series [9] came to 8.82 mM.

Consider `Cc1ccc(-c2cscn2)[c]([Os][Cl])c1.Cc1ccc(C(C)C)cc1` [Compound 2d], for which the IC50 in [1] is 9.3 µM; in series [2] it was 3.7 µM; in [3], 17 µM.

For the compound `Cc1ccc(C(C)C)cc1.Fc1ccc(-c2cscn2)[c]([Os][Cl])c1` [Compound 2b], the results for the IC50 in series [1], in series [2] and in [3] were 7.1 µM, 2 µM and 10 µM, respectively.

Consider `Cc1ccc(C(C)C)cc1.Cc1ccc2[c](c1)[Ru-]([n+]1ccn(C)c1)[n+]1cscc1-2.O=[N+]([O-])[O-]` [Compound 3d, [((3-κN)-1-Methylimidazole)(4-(4-methylphenyl)thiazolato-κN,κC2′)(η^6-p-cymene)ruthenium(II)] Nitrate], for which the IC50 was determined as 3.8 ± 0.3 µM in [5], 1.61 ± 0.04 µM in series [6] and 7.2 ± 1 µM in series [8]. Besides, the “Cellular accumulation, fg Ru/cell” value in series [7] was found to be 477 ± 47 fg Ru/cell. Also, the “Stabilization of oligonucleotides (G4s or B-DNA)” value in series [10] is listed as “No stabilization”. Besides, in [9], the Solubility came out at 8.92 mM.

For `COc1ccc2[c](c1)[Os-]([n+]1ccn(C)c1)[n+]1cscc1-2.Cc1ccc(C(C)C)cc1.O=[N+]([O-])O` [Compound 4e, [((3-κN)-1-Methylimidazole)(4-(4-methoxyphenyl)thiazolato-κN,κC2′)(η^6-p-cymene)osmium(II)] Nitrate], the IC50 in [5] is 8.1 ± 2.6 µM; in series [6] it was 2.1 ± 0.5 µM; in series [8] it was 24 ± 1 µM.

Regarding `COc1ccc2[c](c1)[Ru-]([n+]1ccn(C)c1)[n+]1cscc1-2.Cc1ccc(C(C)C)cc1.O=[N+]([O-])[O-]` [Compound 3e, [((3-κN)-1-Methylimidazole)(4-(4-methoxyphenyl)thiazolato-κN,κC2′)(η^6-p-cymene)ruthenium(II)] Nitrate], the IC50 in [5] was 5.5 ± 2.2 µM; in [6] it was 1.8 ± 0.3 µM; in series [8], 14 ± 1 µM. Moreover, the “Cellular accumulation, fg Ru/cell” value in [7] is reported as 246 ± 47 fg Ru/cell. The compound also yielded a Solubility in series [9] of 15.6 mM.

Turning to `COc1ccc(-c2cscn2)[c]([Ru][Cl])c1.Cc1ccc(C(C)C)cc1` [Compound 1e], the IC50 is 17 µM in [1], 7.3 µM in series [2] and 27 µM in [3].

With `Cc1ccc(C(C)C)cc1.Cn1cc[n+]([Os-]2[c]3ccccc3-c3csc[n+]32)c1.O=[N+]([O-])[O-]` [Compound 4a, [((3-κN)-1-Methylimidazole)(4-phenylthiazolato-κN,κC2′)(η^6-p-cymene)osmium(II)] Nitrate], the IC50 in series [5] is 5.9 ± 1.9 µM; in [6], 2.3 ± 0.2 µM; in series [11], 9.6 ± 1.2 µM; in [8], 12 ± 1 µM; in series [12], 9.4 ± 4.6 µM. For the same compound, the “Effect on intracellular ROS levels” value in series [4] is recorded as “initially lowers ROS levels”.

Regarding `Cc1ccc(C(C)C)cc1.Cn1cc[n+]([Os-]2[c]3cc(F)ccc3-c3csc[n+]32)c1.O=[N+]([O-])O` [Compound 4b, [((3-κN)-1-Methylimidazole)(4-(4-fluorophenyl)thiazolato-κN,κC2′)(η^6-p-cymene)osmium(II)] Nitrate], the IC50 in series [5] stood at 7.4 ± 2.3 µM; in [6], 2.7 ± 0.2 µM; in series [8], 20 ± 2 µM.

In the case of `Cc1ccc(C(C)C)cc1.[Cl][Os][c]1ccccc1-c1cscn1` [Compound 2a], the IC50 is 9.3 µM in series [1], 3 µM in series [2] and 17 µM in [3].

As to `Cc1ccc(C(C)C)cc1.Cn1cc[n+]([Os-]2[c]3cc(S(C)(=O)=O)ccc3-c3csc[n+]32)c1.O=[N+]([O-])[O-]` [Compound 4c, [((3-κN)-1-Methylimidazole)(4-(4-(methylsulfonyl)phenyl)thiazolato-κN,κC2′)(η^6-p-cymene)osmium(II)] Nitrate], the IC50 in series [5] is above 200 µM; in [6], above 200 µM; in series [11] it was above 200 µM; in series [8], above 200 µM; in [12], 344 ± 19 µM. In series [4], the “Effect on intracellular ROS levels” value is reported as “initially lowers ROS levels”.

For the compound `Cc1ccc(C(C)C)cc1.Cc1ccc2[c](c1)[Os-]([n+]1ccn(C)c1)[n+]1cscc1-2.O=[N+]([O-])O` [Compound 4d, [((3-κN)-1-Methylimidazole)(4-(4-methylphenyl)thiazolato-κN,κC2′)(η^6-p-cymene)osmium(II)] Nitrate], the IC50 worked out at 3.4 ± 0.9 µM in [5], 1.2 ± 0.2 µM in [6] and 7.1 ± 0.6 µM in series [8].

Take `COc1ccc(-c2cscn2)[c]([Os][Cl])c1.Cc1ccc(C(C)C)cc1` [Compound 2e]: the IC50 in series [1] is 7.1 µM; in series [2], 2.2 µM; in [3], 14 µM.

The values above are taken from paper PMC12463534, “Exploring the Anticancer Properties of 4-Phenylthiazole-Based Ru(II) and Os(II) Metallacycles Featuring 1-Methylimidazole as N-Donor Functionality” (Bioinorganic Chemistry and Applications, 2025).
